According to US20250368666A1, “INDAZOLE COMPOUNDS” (TYRA BIOSCIENCES, INC., priority 2022, published 2025):

What was measured:
FGFR1 = biological target: T1, FGFR1 (Homo sapiens, UniProt P11362); experiment: Kinase binding assay (kinase-tagged T7 phage, affinity beads, qPCR), Kd; conditions: read-out: FGFR1 (Kd nM)
T1 construct: made in house; host or cells: E. coli (BL21-derived), T7 phage
Method in brief: (§1)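 Phage-tagged kinase capture on small-molecule affinity resin, compound competition, qPCR quantitation; Kd from Levenberg-Marquardt Hill fit.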

FGFR2 = biological target: T2, FGFR2 (Homo sapiens, UniProt P21802); experiment: as above; conditions: read-out: FGFR2 (Kd nM)
T2 construct: made in house; host or cells: E. coli (BL21-derived), T7 phage
T2 sequence (P21802 22-821): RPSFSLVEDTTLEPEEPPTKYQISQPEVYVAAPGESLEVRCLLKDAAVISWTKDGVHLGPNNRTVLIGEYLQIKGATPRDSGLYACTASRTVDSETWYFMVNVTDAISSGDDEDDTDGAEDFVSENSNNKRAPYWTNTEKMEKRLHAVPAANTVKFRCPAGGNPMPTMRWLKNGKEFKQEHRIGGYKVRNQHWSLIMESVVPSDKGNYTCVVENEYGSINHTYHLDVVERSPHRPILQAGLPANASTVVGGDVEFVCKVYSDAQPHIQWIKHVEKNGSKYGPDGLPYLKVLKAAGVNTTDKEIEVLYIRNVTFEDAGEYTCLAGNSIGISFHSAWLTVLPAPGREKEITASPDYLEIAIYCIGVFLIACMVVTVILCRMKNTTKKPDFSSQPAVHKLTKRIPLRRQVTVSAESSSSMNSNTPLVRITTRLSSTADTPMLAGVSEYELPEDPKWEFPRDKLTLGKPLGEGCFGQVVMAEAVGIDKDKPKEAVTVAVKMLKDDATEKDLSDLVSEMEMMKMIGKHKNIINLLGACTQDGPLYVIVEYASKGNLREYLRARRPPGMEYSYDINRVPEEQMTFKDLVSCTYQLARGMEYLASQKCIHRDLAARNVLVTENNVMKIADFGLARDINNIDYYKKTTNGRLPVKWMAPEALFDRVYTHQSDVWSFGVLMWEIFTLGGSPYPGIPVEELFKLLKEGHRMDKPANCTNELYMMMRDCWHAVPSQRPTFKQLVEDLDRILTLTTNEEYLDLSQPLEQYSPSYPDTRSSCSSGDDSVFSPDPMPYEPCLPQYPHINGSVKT
Method in brief: as §1

FGFR3 = biological target: T3, FGFR3 (Homo sapiens, UniProt P22607); experiment: as above; conditions: read-out: FGFR3 (Kd nM)
T3 construct: made in house; host or cells: E. coli (BL21-derived), T7 phage
T3 sequence (P22607 23-806): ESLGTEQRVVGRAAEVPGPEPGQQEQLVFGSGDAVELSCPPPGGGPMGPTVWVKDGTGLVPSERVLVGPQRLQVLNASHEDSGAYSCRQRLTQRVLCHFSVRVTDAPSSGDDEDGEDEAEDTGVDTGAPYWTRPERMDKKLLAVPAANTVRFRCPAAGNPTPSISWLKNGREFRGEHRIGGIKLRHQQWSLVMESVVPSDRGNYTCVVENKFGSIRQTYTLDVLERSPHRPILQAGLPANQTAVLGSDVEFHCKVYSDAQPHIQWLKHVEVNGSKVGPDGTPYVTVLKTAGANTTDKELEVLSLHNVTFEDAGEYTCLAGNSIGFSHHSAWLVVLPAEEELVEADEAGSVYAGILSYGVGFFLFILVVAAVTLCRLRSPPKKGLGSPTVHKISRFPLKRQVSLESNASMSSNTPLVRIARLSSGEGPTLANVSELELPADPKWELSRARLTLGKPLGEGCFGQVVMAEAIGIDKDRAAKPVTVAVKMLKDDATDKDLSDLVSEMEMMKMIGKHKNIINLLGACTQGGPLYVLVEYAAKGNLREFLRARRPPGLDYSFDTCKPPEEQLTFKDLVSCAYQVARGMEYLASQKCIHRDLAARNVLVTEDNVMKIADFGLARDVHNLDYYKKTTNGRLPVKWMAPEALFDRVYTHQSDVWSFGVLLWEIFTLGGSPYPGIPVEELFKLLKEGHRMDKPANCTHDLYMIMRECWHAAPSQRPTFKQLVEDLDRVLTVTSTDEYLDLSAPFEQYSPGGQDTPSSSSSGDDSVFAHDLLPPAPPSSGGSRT
Method in brief: as §1

FGFR4 = biological target: T4, FGFR4 (Homo sapiens, UniProt P22455); experiment: as above; conditions: read-out: FGFR4 (Kd nM)
T4 construct: made in house; host or cells: E. coli (BL21-derived), T7 phage
T4 sequence (P22455 22-802): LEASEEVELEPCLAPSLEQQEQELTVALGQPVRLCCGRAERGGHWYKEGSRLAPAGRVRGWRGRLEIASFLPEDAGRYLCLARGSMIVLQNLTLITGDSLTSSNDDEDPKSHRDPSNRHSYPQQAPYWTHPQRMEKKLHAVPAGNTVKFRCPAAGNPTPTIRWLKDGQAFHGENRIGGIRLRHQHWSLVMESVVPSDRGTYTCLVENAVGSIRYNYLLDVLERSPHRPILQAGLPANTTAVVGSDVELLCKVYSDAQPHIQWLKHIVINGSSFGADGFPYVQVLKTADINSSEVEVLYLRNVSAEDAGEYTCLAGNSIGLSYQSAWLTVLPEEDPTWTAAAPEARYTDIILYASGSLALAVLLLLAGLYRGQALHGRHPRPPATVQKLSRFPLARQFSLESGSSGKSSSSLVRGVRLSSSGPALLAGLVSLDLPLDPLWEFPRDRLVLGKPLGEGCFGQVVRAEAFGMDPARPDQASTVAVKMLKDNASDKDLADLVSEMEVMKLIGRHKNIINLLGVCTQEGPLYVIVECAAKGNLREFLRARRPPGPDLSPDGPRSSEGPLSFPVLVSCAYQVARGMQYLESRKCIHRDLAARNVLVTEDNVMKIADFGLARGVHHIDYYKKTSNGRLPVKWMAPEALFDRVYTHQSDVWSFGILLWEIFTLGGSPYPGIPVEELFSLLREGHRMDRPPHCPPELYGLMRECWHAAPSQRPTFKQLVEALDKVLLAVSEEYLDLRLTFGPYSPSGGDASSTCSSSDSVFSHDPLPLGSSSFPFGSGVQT
Method in brief: as §1

[1] = test system: KATO-III cell line (FGFR2 amplification); experiment: Cancer cell line cell viability assay (Cell Titer-Glo), 72 hr; type: cell-based; conditions: Homo sapiens, KATO III
Method in brief: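 Cells seeded at 5,000-20,000/well, incubated overnight, then treated with a 9-dose, 4-fold dilution series from 3 μM in triplicate at 37° C, 5% CO2. Viability read by Cell Titer-Glo 2.0 luminescence as percent of DMSO control; IC50 from 4-parameter variable-slope sigmoidal fit.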

[2] = test system: KG-1 cell line (FGFR 1-fusion); experiment: as above; type: cell-based; conditions: Homo sapiens, KG-1, KG-1 cell line (FGFR1-fusion)
Method in brief: (§2)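 Intracellular ATP was measured by Cell Titer-Glo 2.0 luminescence after cells were incubated with compound dilutions (top 3 μM, 4-fold, 9 doses). Values were expressed relative to DMSO-treated cells and IC50 was calculated from a variable-slope dose-response curve.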

[3] = test system: RT112/84 cell line (FGFR3-fusion); experiment: as above; type: cell-based; conditions: Homo sapiens, RT112/84, RT112/84 cell line (FGFR3-fusion)
Method in brief: as §2

[4] = test system: HuH7 cell line (FGF19 amplification); experiment: Cancer cell line cell viability assay (Cell Titer-Glo), 120 hr; type: cell-based; conditions: Homo sapiens, Huh-7
Method in brief: as §2

[5] = test system: MDA-MB-453 cell line (FGFR4-Y367C); experiment: as above; type: cell-based; conditions: Homo sapiens
Method in brief: as §2

FGFR3 (V555M) = biological target: T5, FGFR3 (V555M) (Homo sapiens, UniProt P22607, V555M); experiment: Kinase binding assay (kinase-tagged T7 phage, affinity beads, qPCR), Kd; conditions: V555M mutant; read-out: FGFR3 (V555M) (Kd nM)
T5 construct: made in house; host or cells: E. coli (BL21-derived), T7 phage
T5 sequence (P22607 23-806 V555M): as the sequence (P22607 23-806) above, with V533M counted along it
Method in brief: as §1

T1 sequence (P11362 22-822): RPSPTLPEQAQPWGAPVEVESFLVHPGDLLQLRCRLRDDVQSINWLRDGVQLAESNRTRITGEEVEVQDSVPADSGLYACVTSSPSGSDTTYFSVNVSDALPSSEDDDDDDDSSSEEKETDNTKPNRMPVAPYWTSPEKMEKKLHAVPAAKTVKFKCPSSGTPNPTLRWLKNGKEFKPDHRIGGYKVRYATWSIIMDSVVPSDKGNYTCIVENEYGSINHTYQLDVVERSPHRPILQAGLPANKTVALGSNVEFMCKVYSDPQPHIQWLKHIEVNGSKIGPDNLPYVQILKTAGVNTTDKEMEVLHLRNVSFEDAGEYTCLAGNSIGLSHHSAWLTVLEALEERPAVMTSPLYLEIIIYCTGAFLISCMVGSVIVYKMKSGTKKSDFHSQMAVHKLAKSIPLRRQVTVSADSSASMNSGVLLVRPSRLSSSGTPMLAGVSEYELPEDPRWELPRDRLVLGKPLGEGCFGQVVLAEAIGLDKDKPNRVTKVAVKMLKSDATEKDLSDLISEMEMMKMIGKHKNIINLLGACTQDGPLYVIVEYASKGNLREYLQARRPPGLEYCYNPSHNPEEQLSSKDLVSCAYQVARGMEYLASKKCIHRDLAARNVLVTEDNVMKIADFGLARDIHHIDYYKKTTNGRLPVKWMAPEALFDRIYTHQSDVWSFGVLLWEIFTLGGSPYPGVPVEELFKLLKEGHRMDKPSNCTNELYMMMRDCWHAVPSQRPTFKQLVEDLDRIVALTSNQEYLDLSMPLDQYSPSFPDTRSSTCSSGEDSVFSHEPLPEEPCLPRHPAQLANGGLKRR

| SMILES | Kd (FGFR1) [nM] | Kd (FGFR2) [nM] | Kd (FGFR3) [nM] | Kd (FGFR4) [nM] | IC50 [1] [nM] | IC50 [2] [nM] | IC50 [3] [nM] | IC50 [4] [nM] | IC50 [5] [nM] | Kd (FGFR3 (V555M)) [nM] |
| --- | --- | --- | --- | --- | --- | --- | --- | --- | --- | --- |
| COc1cc2[nH]nc(-c3cnc(N4CC[C@](C)(N)C4)c(C#N)c3)c2cc1O[C@H](C)c1c(Cl)cncc1Cl [Example 367, 2-((S)-3-amino-3-methylpyrrolidin-1-yl)-5-(5-((R)-1-(3,5-dichloropyridin-4-yl)ethoxy)-6-methoxy-1H-indazol-3-yl)nicotinonitrile] | 1 to 50 | 1 to 50 | 1 to 50 | 1 to 50 | 0.1 to 50 | 50 to 200 | 0.1 to 50 | 0.1 to 50 | 0.1 to 50 |  |
| C[C@@H](Oc1ccc2[nH]nc(-c3cnc(N4CC(CC#N)(NCC5CC5)C4)c(F)c3)c2c1)c1c(Cl)cncc1Cl [Example 151, 2-[3-(Cyclopropylmethyl-amino)-1-[5-[5-[(1R)-1-(3,5-dichloro-4-pyridyl)ethoxy]-1H-indazol-3-yl]-3-fluoro-2-pyridyl]azetidin-3-yl]acetonitrile] | 1 to 50 |  | 1 to 50 |  | 50 to 200 | 50 to 200 | 0.1 to 50 | 0.1 to 50 | 50 to 200 |  |
| CC(C)NC1(CC#N)CN(c2ncc(-c3n[nH]c4ccc(O[C@H](C)c5c(Cl)cncc5Cl)cc34)cc2F)C1 [Example 150, (R)-2-(1-(5-(5-(1-(3,5-dichloropyridin-4-yl)ethoxy)-1H-indazol-3-yl)-3-fluoropyridin-2-yl)-3-(isopropylamino)azetidin-3-yl)acetonitrile] | 1 to 50 |  | 1 to 50 |  | 0.1 to 50 | 50 to 200 | 0.1 to 50 | 0.1 to 50 | 50 to 200 |  |
| COc1cc2[nH]nc(-c3cnc(N4CC[C@@](C)(N)C4)c(C#N)c3)c2cc1O[C@H](C)c1c(Cl)cncc1Cl [Example 369, 2-((R)-3-amino-3-methylpyrrolidin-1-yl)-5-(5-((R)-1-(3,5-dichloropyridin-4-yl)ethoxy)-6-methoxy-1H-indazol-3-yl)nicotinonitrile] | 1 to 50 | 1 to 50 | 1 to 50 | 1 to 50 | 0.1 to 50 | 50 to 200 | 0.1 to 50 | 0.1 to 50 | 0.1 to 50 |  |
| CNC1(C)CN(c2ccc(-c3n[nH]c4ccc(O[C@H](C)c5c(Cl)cnc(C)c5Cl)cc34)cn2)C1 [Example 76, 1-[5-[5-[(1R)-1-(3,5-dichloro-2-methyl-4-pyridyl)ethoxy]-1H-indazol-3-yl]-2-pyridyl]-N,3-dimethyl-azetidin-3-amine] | 1 to 50 | 1 to 50 | 1 to 50 | 1 to 50 | 50 to 200 | 50 to 200 | 0.1 to 50 |  | 200 to 1000 | 1 to 50 |
| CC(C)CNC1(C)CN(c2ncc(-c3n[nH]c4ccc(O[C@H](C)c5c(Cl)cncc5Cl)cc34)cc2F)C1 [Example 138, 1-[5-[5-[(1R)-1-(3,5-dichloro-4-pyridyl)ethoxy]-1H-indazol-3-yl]-3-fluoro-2-pyridyl]-N-isobutyl-3-methyl-azetidin-3-amine] | 1 to 50 | 1 to 50 | 1 to 50 | 1 to 50 | 0.1 to 50 | 50 to 200 | 0.1 to 50 |  | 50 to 200 | 1 to 50 |
| C[C@@H](Oc1ccc2[nH]nc(-c3cnc(N4CC(C)(NCP(C)(C)=O)C4)c(F)c3)c2c1)c1c(Cl)cncc1Cl [Example 182, 1-[5-[5-[(1R)-1-(3,5-dichloro-4-pyridyl)ethoxy]-1H-indazol-3-yl]-3-fluoro-2-pyridyl]-N-(dimethylphosphorylmethyl)-3-methyl-azetidin-3-amine] | 1 to 50 | 1 to 50 | 1 to 50 | 1 to 50 | 0.1 to 50 | 200 to 1000 | 0.1 to 50 |  | 0.1 to 50 | 1 to 50 |
| C[C@@H](Oc1ccc2[nH]nc(-c3ccc(N4CC(C)(NCC5CC5)C4)nc3)c2c1)c1c(Cl)cncc1Cl [Example 219, (R)-N-(cyclo-propylmethyl)-1-(5-(5-(1-(3,5-dichloropyridin-4-yl)ethoxy)-1H-indazol-3-yl)pyridin-2-yl)-3-methylazetidin-3-amine] | 1 to 50 | 1 to 50 | 1 to 50 | 1 to 50 | 0.1 to 50 | 0.1 to 50 | 0.1 to 50 |  | 50 to 200 | 1 to 50 |
| C[C@@H](Oc1ccc2[nH]nc(-c3ccc(N4CC(C)(NCC5CC5)C4)nc3F)c2c1)c1c(Cl)cncc1Cl [Example 237, (R)—N-(cyclopropylmethyl)-1-(5-(5-(1-(3,5-dichloropyridin-4-yl)ethoxy)-1H-indazol-3-yl)-6-fluoropyridin-2-yl)-3-methylazetidin-3-amine] | 1 to 50 | 1 to 50 | 1 to 50 | 1 to 50 | 0.1 to 50 | 0.1 to 50 | 0.1 to 50 |  | 50 to 200 | 1 to 50 |
| CC(C)CNC1(C)CN(c2ccc(-c3n[nH]c4ccc(O[C@H](C)c5c(Cl)cncc5Cl)cc34)cn2)C1 [Example 224, (R)-1-(5-(5-(1-(3,5-dichloropyridin-4-yl)ethoxy)-1H-indazol-3-yl)pyridin-2-yl)-N-isobutyl-3-methylazetidin-3-amine] | 1 to 50 | 1 to 50 | 1 to 50 | 1 to 50 | 0.1 to 50 | 50 to 200 | 0.1 to 50 |  | 50 to 200 | 1 to 50 |
| C[C@@H](Oc1ccc2[nH]nc(-c3ccc(N4CC(C)(N5C[C@@H]6C[C@H]5CO6)C4)nc3)c2c1)c1c(Cl)cncc1Cl [Example 229, (1S,4S)-5-(1-(5-(5-((R)-1-(3,5-dichloropyridin-4-yl)ethoxy)-1H-indazol-3-yl)pyridin-2-yl)-3-methylazetidin-3-yl)-2-oxa-5-aza-bicyclo[2.2.1]hep-tane] | 1 to 50 | 1 to 50 | 1 to 50 | 1 to 50 | 0.1 to 50 | 50 to 200 | 0.1 to 50 |  | 50 to 200 | 1 to 50 |
| CC(=O)N1CCN(C2(C)CN(c3ncc(-c4n[nH]c5ccc(O[C@H](C)c6c(Cl)cncc6Cl)cc45)cc3F)C2)CC1 [Example 220, 1-[4-[1-[5-[5-[(1R)-1-(3,5-dichloro-4-pyridyl)ethoxy]-1H-indazol-3-yl]-3-fluoro-2-pyridyl]-3-methyl-azetidin-3-yl]piperazin-1-yl]ethanone] | 1 to 50 | 1 to 50 | 1 to 50 | 1 to 50 | 0.1 to 50 | 50 to 200 | 0.1 to 50 |  | 50 to 200 | 1 to 50 |
| Cc1ncc(Cl)c([C@@H](C)Oc2ccc3[nH]nc(-c4ccc(N5CC(C)(N(C)C)C5)nc4)c3c2)c1Cl [Example 78, 1-[5-[5-[(1R)-1-(3,5-dichloro-2-methyl-4-pyridyl)ethoxy]-1H-indazol-3-yl]-2-pyridyl]-N,N,3-trimethyl-azetidin-3-amine] | 1 to 50 | 1 to 50 | 1 to 50 | 1 to 50 | 50 to 200 | 200 to 1000 | 0.1 to 50 |  | 200 to 1000 | 1 to 50 |
| CC[C@@H](C)NC1(C)CN(c2ccc(-c3n[nH]c4ccc(O[C@H](C)c5c(Cl)cncc5Cl)cc34)cn2)C1 [Example 225, 1-[5-[5-[(1R)-1-(3,5-dichloro-4-pyridyl)ethoxy]-1H-indazol-3-yl]-2-pyridyl]-3-methyl-N-[(1R)-1-meth-ylpropyl]azetidin-3-amine] | 1 to 50 | 1 to 50 | 1 to 50 | 1 to 50 | 0.1 to 50 | 50 to 200 | 0.1 to 50 |  | 50 to 200 | 1 to 50 |
| C[C@@H](Oc1ccc2[nH]nc(-c3cnc(N4CC(C)(NCC5CC5)C4)c(F)c3)c2c1)c1c(Cl)cncc1Cl [Example 106, (R)-N-(cyclopropylmethyl)-1-(5-(5-(1-(3,5-dichloropyridin-4-yl)ethoxy)-1H-indazol-3-yl)-3-fluoropyridin-2-yl)-3-methylazetidin-3-amine] | 1 to 50 | 1 to 50 | 1 to 50 | 1 to 50 | 50 to 200 | 50 to 200 | 0.1 to 50 |  | 50 to 200 | 1 to 50 |
